Test results reported in patent publication US9522197B2, “Nanoparticles comprising a cyclodextrin and a biologically active molecule and uses thereof” (INNOUP FARMA, S.L., priority 2007, dated 2016).

assay: Quantification of cyclodextrin associated with the nanoparticles (HPLC-ELSD); type: physicochemical; details: PVM/MA 100 mg, cyclodextrin 25 mg, incubation 30 min; n=12
Protocol: The analysis was conducted in a 1100 series LC model chromatograph (Agilent, Waldbornn, Germany) and the data was analyzed in a Hewlett-Packard computer by means of the Chem-Station G2171 program (Agueros et al., J. Pharm. and Biomed. Anal., 39 (2005) 495-502).
For the sample analysis, the supernatants obtained after the purification process of the nanoparticles were diluted up to 10 ml with purified water. After adding the internal standard (PEG 6000), 1 ml aliquots of supernatant were taken as a sample. The samples were analyzed using a Zorbax Eclipse XDB-Phenyl column (Agilent 150 mm×2.1 mm) and a mixture of water/acetonitrile in a gradient (see Table 1) as a mobile phase at a flow of 0.25 ml/min.
The conditions of the detector (ELSD) were optimized until achieving the maximum sensitivity according to the gradient used in the mobile phase (Nebulizer Temperature: 115° C.; Nitrogen Flow: 3.2 ml/min). The chromatographic separation of the different cyclodextrins, of PVM/MA and of the internal standard (PEG 6000) was carried out in less than 15 minutes. The retention times were:
In the case of the quantification of aminated cyclodextrin [e.g. 6-monodeoxy-6-monoamino-β-cyclodextrin (NH-β-CD)] associated to the nanoparticles, a variant of the above described method was used to prevent the overlapping of the peaks of the cyclodextrin and the polymer. Therefore, the samples were analyzed using an NH2-Zorbax column (Agilent 4.6×150 mm, 5 μm), heated to 40° C. and a mixture of methanol/water (80/20 v/v) as a mobile phase at a flow of 1 ml/min. The conditions of the detector (ELSD) were the following: Nebulizer Temperature: 71° C. and Nitrogen Flow: 1.9 ml/min. The chromatographic separation of 6-monodeoxy-6-monoamino-β-cyclodextrin was carried out in less than 7 minutes. The retention time was 3.8±0.07 minutes.
Finally, the amount of cyclodextrin (CD) associated to the nanoparticles was calculated as the difference between the amount of CD initially added and the amount of CD quantified in the supernatants.

Row | Associated CD | Compound
1 | ~70 µg/mg | 2-hydroxypropyl-β-cyclodextrin [OH-β-CD]
2 | about 90 μg/mg | OC[C@H]1O[C@@H]2O[C@H]3[C@H](O)[C@@H](O)[C@@H](O[C@H]4[C@H](O)[C@@H](O)[C@@H](O[C@H]5[C@H](O)[C@@H](O)[C@@H](O[C@H]6[C@H](O)[C@@H](O)[C@@H](O[C@H]7[C@H](O)[C@@H](O)[C@@H](O[C@H]8[C@H](O)[C@@H](O)[C@@H](O[C@H]1[C@H](O)[C@H]2O)O[C@@H]8CO)O[C@@H]7CO)O[C@@H]6CO)O[C@@H]5CO)O[C@@H]4CO)O[C@@H]3CO [β-CD, β-cyclodextrin]
3 | ~70 µg/mg | NC[C@H]1O[C@@H]2O[C@H]3[C@H](O)[C@@H](O)[C@@H](O[C@H]4[C@H](O)[C@@H](O)[C@@H](O[C@H]5[C@H](O)[C@@H](O)[C@@H](O[C@H]6[C@H](O)[C@@H](O)[C@@H](O[C@H]7[C@H](O)[C@@H](O)[C@@H](O[C@H]8[C@H](O)[C@@H](O)[C@@H](O[C@H]1[C@H](O)[C@H]2O)O[C@@H]8CO)O[C@@H]7CO)O[C@@H]6CO)O[C@@H]5CO)O[C@@H]4CO)O[C@@H]3CO [NH-β-CD, 6-monodeoxy-6-monoamino-β-cyclodextrin]
